The inhibition is how much of the control response was suppressed. For orientation: IC50 means the concentration that gives 50% inhibition. Higher therefore signals a need for much substance.

We go through 2 molecules from US5567738A, “Use of 2-(4-(4-chlorophenyl)cyclohexyl)-3-hydroxy-1,4-Naphthoquinone for the treatment of cancer” (Glaxo Wellcome Inc., priority 1992, dated 1996).

What all share (format): cell-based
Assay [1] deals with WiDr (Human colon adenocarcinoma). The assay is described as follows: Proliferative assay against tumour cell line WiDr in vitro. As to conditions: read-out: Activity (% Growth Inhibition). Here is the method:
(§1) Activity Against Tumour Cell Lines In Vitro The activity of the test compound was evaluated using proliferative assays against a number of different turnout cell lines in vitro.

In assay [2] the test system is DLD-1 (Human colon adenocarcinoma). Put plainly: Proliferative assay against tumour cell line DLD-1 in vitro. Particulars: read-out: Activity (% Growth Inhibition). Here is the method: as §1
The subject of the next assay is HT1080SCC2. Put plainly: Activity against human fibrosarcoma cells in vitro, HT1080SCC2. Here is the method: (§2) Activity Against Human Fibrosarcoma Cells In Vitro The activities of the test compound and of a soluble carbamate derivative thereof against two cell lines derived from human fibrosarcoma cells were measured.
Another assay concerns HT10801C. Put plainly: Activity against human fibrosarcoma cells in vitro, HT10801C. Here is the method:
as §2

Assay [3] relates to P3888D1 (Mouse Leukaemia). Put plainly: Proliferative assay against tumour cell line P3888D1 in vitro. As to conditions: read-out: Activity (% Growth Inhibition). Here is the method:
as §1

The subject of assay [4] is HCT-116 (Human colon carcinoma). Put plainly: Proliferative assay against tumour cell line HCT-116 in vitro. As to conditions: read-out: Activity (% Growth Inhibition). Here is the method:
as §1

The subject of assay [5] is two cell lines derived from human fibrosarcoma cells. Put plainly: Activity against two cell lines derived from human fibrosarcoma cells in vitro. As to conditions: both cell lines. Here is the method:
as §2

The next assay deals with tumour cell lines. Put plainly: Activity against tumour cell lines in vitro, all cell lines tested (proliferative assays). Particulars: at 1001 μM concentration (so in the source). Here is the method:
as §1

Assay [6] relates to A549 (Human lung carcinoma). The assay is described as follows: Proliferative assay against tumour cell line A549 in vitro. As to conditions: read-out: Activity (% Growth Inhibition). Here is the method:
as §1

Assay [7] deals with carcinoma, adenocarcinoma and fibrosarcoma cells. Put plainly: Activity against tumour cells (general statement).

With `O=C1C(O)=C([C@H]2CC[C@H](c3ccc(Cl)cc3)CC2)C(=O)c2ccccc21` [Test Compound, 2-[trans-4-(4-chlorophenyl)cyclohexyl]-3-hydroxy-1,4-naphthoquinone], the inhibition at 100 µM in [1] was 79.4%; in [2] it was 94.2%; in [3], 92.3%; in assay [4], 93.8%; in assay [6] it was 86.6%. Besides, the IC50 was 11 µM with HT1080SCC2 and 15 µM in the assay with HT10801C. Besides, the “activity against human fibrosarcoma cell lines” value in assay [5] is given as “active”. For the same molecule, the “active against all the cell lines tested” value in the assay on tumour cell lines is on record as “active”.
On to `O=C1C(O)=C(C2CCC(c3ccc(Cl)cc3)CC2)C(=O)c2ccccc21` (stereo not shown) [compound of formula (II), 2-[4-(4-chlorophenyl)cyclohexyl]-3-hydroxy-1,4-naphthoquinone], for which the “activity against tumour cells” value in assay [7] is “exhibits activity against tumour cells”.
